Test results from patent US6448405B1, “Steroid receptor modulator compounds and methods” (Ligand Pharmaceuticals Incorporated, priority 1994, dated 2002).
Like-named read-outs stand apart in the source and are kept apart here.

Assays:
[1] = molecular target: T1, human progesterone receptor A form (PR-A) (Homo sapiens, UniProt P06401); assay: PR binding assay, baculovirus extract, [3H] progesterone
T1 sequence (P06401 1-769 isoform P06401-2): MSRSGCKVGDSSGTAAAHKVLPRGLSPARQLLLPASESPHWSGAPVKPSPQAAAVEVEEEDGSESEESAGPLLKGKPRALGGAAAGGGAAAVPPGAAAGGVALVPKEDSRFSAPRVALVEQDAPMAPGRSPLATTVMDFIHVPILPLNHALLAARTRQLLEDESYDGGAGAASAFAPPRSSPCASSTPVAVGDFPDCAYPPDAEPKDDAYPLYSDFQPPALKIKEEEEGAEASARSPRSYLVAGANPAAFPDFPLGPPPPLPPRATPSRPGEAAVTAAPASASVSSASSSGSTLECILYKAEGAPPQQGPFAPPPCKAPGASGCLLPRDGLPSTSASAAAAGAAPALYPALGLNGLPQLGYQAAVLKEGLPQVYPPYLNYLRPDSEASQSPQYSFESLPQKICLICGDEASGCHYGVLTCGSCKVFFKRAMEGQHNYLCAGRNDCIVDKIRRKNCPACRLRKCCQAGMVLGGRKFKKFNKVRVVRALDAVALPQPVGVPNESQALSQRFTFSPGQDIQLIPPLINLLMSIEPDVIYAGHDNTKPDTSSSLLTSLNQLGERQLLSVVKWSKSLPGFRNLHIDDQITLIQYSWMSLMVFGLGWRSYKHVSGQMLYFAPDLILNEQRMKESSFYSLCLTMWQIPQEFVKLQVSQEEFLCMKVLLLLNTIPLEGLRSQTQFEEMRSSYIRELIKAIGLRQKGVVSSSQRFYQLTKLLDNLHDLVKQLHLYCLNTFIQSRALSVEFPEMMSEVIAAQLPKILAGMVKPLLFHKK

human PR-B = molecular target: T2, human PR-B (Homo sapiens, UniProt P06401); assay: Co-transfection assay, PR agonist and antagonist activity, CV-1 cells; type: cell-based; settings: for EC50: agonist mode, read-out: PR Agonist CV-1 Cells Potency;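 on all read-outs here: luciferase reporter driven by a hormone response element, co-transfected with human PR-B into CV-1 monkey kidney cells, agonists raise and antagonists lower the reporter signal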
T2 construct: expressed in transfected cells; host or cells: CV-1 cells (African green monkey kidney fibroblasts), transient transfection
T2 sequence (P06401 1-933): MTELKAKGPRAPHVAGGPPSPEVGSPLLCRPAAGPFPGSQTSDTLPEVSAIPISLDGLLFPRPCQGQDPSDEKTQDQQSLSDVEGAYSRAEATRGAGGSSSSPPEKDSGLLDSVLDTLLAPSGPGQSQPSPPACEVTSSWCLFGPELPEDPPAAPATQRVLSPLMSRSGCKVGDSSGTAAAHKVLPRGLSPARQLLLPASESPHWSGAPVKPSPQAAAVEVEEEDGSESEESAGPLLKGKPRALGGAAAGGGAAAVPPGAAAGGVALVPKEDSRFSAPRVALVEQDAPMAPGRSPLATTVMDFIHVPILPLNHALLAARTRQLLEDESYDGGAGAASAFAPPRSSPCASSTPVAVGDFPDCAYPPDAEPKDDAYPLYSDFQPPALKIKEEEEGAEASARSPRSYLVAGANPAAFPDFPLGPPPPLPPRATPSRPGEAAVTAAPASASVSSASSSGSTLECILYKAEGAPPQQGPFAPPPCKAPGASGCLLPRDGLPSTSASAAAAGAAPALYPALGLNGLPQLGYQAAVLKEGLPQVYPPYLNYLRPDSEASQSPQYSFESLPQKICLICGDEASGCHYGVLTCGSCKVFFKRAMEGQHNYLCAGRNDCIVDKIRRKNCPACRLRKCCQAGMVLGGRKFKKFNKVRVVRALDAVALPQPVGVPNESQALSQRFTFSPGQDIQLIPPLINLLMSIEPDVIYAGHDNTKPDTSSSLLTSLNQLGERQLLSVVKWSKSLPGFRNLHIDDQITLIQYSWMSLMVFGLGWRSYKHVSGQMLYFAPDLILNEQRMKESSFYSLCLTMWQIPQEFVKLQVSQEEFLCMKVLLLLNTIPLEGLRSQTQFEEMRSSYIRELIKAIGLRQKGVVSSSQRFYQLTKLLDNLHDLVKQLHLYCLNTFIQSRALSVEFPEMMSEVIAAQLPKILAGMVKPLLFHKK

[2] = read-out: PR Antagonist CV-1 Cells Potency

Ki [1] [nM] | IC50 (human PR-B) [nM] | Structure (SMILES) | Ki ([1]; read-out: PR Binding Ki) [nM] | EC50 (human PR-B) [nM] | IC50 (human PR-B; [2]) [nM] | PR Antagonist CV-1 Cells Efficacy (%) (human PR-B) | PR Agonist CV-1 Cells Efficacy (%) (human PR-B)
 |  | CC1(C)C=Cc2c(ccc3c2c(=O)oc2ccc(Cl)cc23)N1 [Compound 313, 9-Chloro-1,2-dihydro-2,2-dimethyl-5-coumarino[3,4-f]quinoline] | 87 | 300 | 140 |  | 
4 | > 10000 | CC1=CC(C)(C)Nc2ccc3c(c21)/C(=C/c1ccc(F)cc1)Oc1ccccc1-3 [Compound 221, (Z)-5-(4-Fluorobenzylidene)-1,2-dihydro-2,2,4-trimethyl-5H-chromeno[3,4-f]quinoline] |  | 117 |  | na (key: na = not active (i.e. efficacy or <20 and potency of >10,000)) | 
 |  | CCCCC1Oc2ccccc2-c2ccc3c(c21)C(C)C(O)(CCCC)C(C)(C)N3 (racemic) [Compound 385, (R/S)-3,5-Dibutyl-1,2,3,4-tetrahydro-3-hydroxy-2,2,4-trimethyl-5H-chromeno[3,4-f]quinoline] | 31 | 82 | 2300 | 45% | 27%
 |  | CC1(C)C=Cc2c(ccc3c2/C(=C/c2ccccc2)Oc2ccc(Cl)cc2-3)N1 [Compound 368, (Z)-5-Benzylidene-9-chloro-1,2-dihydro-2,2-dimethyl-5H-chromeno[3,4-f]quinoline] | 4 | 43 | > 10000 | na (na = not active (i.e. efficacy or <20 and potency of >10,000)) | 183%
 |  | CC1(C)Nc2ccc3c(c2C(=O)C1(C)C)C(c1ccc(Cl)cc1)Oc1ccccc1-3 (racemic) [Compound 379, (R/S)-5-(4-Chlorophenyl)-1,2,3,4-tetrahydro-2,2,3,3-tetramethyl-5H-chromeno[3,4-f]-4-quinolinone] | 25 | > 10000 | 350 | 87% | na (na = not active (i.e. efficacy or <20 and potency of >10,000))
17 | 24 | CC1=CC(C)(C)Nc2ccc(-c3csc(C#N)c3)cc21 [Compound 452, 6-(5-Cyano-3-thienyl)-1,2-dihydro-2,2,4-trimethylquinoline] |  | 2400 |  |  | 
3 | > 10000 | CC1=CC(C)(C)Nc2ccc3c(c21)/C(=C/c1ccccc1F)Oc1ccccc1-3 [Compound 228, (Z)-5-(2-Fluorobenzylidene)-1,2-dihydro-2,2,4-trimethyl-5H-chromeno[3,4-f]quinoline] |  | 40 |  | na (key: na = not active (i.e. efficacy or <20 and potency of >10,000)) | 
 |  | CC1=CC(C)(C)Nc2ccc(-c3nn(C)cc3Br)cc21 [Compound 104, 6-(4-Bromo-1-methylpyrazol-3-yl)-1,2-dihydro-2,2,4-trimethylquinoline] | 82 | 2750 | 120 | 71% | 39%
 |  | CC1=CC(C)(C)Nc2cc(C)c3c(c21)/C(=C/c1ccccc1)Oc1ccc(F)cc1-3 [Compound 377, (Z)-5-Benzylidene-9-Fluoro-1,2-dihydro-2,2,4,11-tetramethyl-5H-chromeno[3,4-f]quinoline] | 20 | 550 | > 10000 | na (na = not active (i.e. efficacy or <20 and potency of >10,000)) | 101%
 |  | CC1C(=O)C(C)(C)Nc2ccc(-c3cc(F)cc(C#N)c3)cc21 (centres unmarked) [Compound 286, 6-(3-Cyano-5-Fluorophenyl)-1,2-dihydro-2,2,4-trimethyl-3-quinolone] | 61 | > 10000 | 155 | 84% | na (na = not active (i.e. efficacy or <20 and potency of >10,000))
